Source: patent publication US11174298B2, “Preparation and use of ginsentides and ginsentide-like peptides” (priority 2016, dated 2021)

What was measured:
[1] = tested on: H9c2 cells; test: MTT cell viability of H9c2 cells, co-treatment with DOX; assay type: cell-based, rat
Description: To identify whether ginsentides can attenuate DOX-induced cardiotoxicity in cardiomyocytes, cell viability after drug treatment was measured by MTT assay.
After 24 h co-treatment of DOX with ginsentides, the viability of H9c2 cells was enhanced by ˜20% compared to the DOX-alone treatment (FIG. 43.).

[2] = tested on: isolated thoracic aorta; test: KCl-induced aortic ring contraction, isometric tension, ex vivo; parameters: species or system rat; settings: thoracic aorta pre-contracted with KCl (30 mM)
[3] = tested on: human endothelial cells (HUVEC-CS); test: Cellular NO synthesis in HUVEC-CS (DAF-2 DA staining); assay type: cell-based
[4] = tested on: α1-adrenergic receptor; test: Phenylephrine-induced aortic ring contraction, isometric tension, ex vivo; parameters: species or system rat; settings: thoracic aorta pre-contracted with phenylephrine (0.1 μM)
[5] = Heparin HPLC affinity column; assay type: binding
Description: Heparin-binding properties of ginsentides using heparin HPLC affinity column.

CC(C)=CCC[C@](C)(O[C@@H]1O[C@H](CO[C@@H]2O[C@H](CO)[C@@H](O)[C@H](O)[C@H]2O)[C@@H](O)[C@H](O)[C@H]1O)[C@H]1CC[C@]2(C)[C@@H]1[C@H](O)C[C@@H]1[C@@]3(C)CC[C@H](O[C@@H]4O[C@H](CO)[C@@H](O)[C@H](O)[C@H]4O[C@@H]4O[C@H](CO)[C@@H](O)[C@H](O)[C@H]4O)C(C)(C)[C@@H]3CC[C@]12C [ginsenoside Rb1]
Protective effects on cardiomyocytes during DOX-treatment [1]: did not showed any protective effects

CC(C)=CCC[C@](C)(O[C@@H]1O[C@H](CO)[C@@H](O)[C@H](O)[C@H]1O)[C@H]1CC[C@]2(C)[C@@H]1[C@H](O)C[C@@H]1[C@@]3(C)CC[C@H](O)C(C)(C)[C@@H]3[C@@H](O[C@@H]3O[C@H](CO)[C@@H](O)[C@H](O)[C@H]3O[C@@H]3O[C@@H](C)[C@H](O)[C@@H](O)[C@H]3O)C[C@]12C [ginsenoside Re]
Protective effects on cardiomyocytes during DOX-treatment [1]: did not showed any protective effects

CC(C)=CCC[C@](C)(O[C@@H]1O[C@H](CO)[C@@H](O)[C@H](O)[C@H]1O)[C@H]1CC[C@]2(C)[C@@H]1[C@H](O)C[C@@H]1[C@@]3(C)CC[C@H](O)C(C)(C)[C@@H]3[C@@H](O[C@@H]3O[C@H](CO)[C@@H](O)[C@H](O)[C@H]3O)C[C@]12C [ginsenoside Rg1]
Protective effects on cardiomyocytes during DOX-treatment [1]: did not showed any protective effects

CISSGGWCGFD-LHGCCG--NCGCLV--GFCYGTGC- (CISSGGWCGFDLHGCCGNCGCLVGFCYGTGC; listed as Panax quinquefolius) [Ginsentide TP8]
Relaxation of KCl-induced contracted aortic ring [2]: not KCI-induced contracted aortic ring | Cellular NO release compared among ginsentides [3]: comparable cellular NO release | Relaxation of phenylephrine-induced aortic ring contraction [4]: relaxes phenylephrine-induced aortic ring contraction

CKSAGTWCGFD-PHGCCG--SCGCLV--GFCYGVSC- (CKSAGTWCGFDPHGCCGSCGCLVGFCYGVSC; Panax ginseng) [Ginsentide TP3]
Relaxation of KCl-induced contracted aortic ring [2]: not KCI-induced contracted aortic ring | Cellular NO release compared among ginsentides [3]: comparable cellular NO release | Retention in heparin HPLC affinity column [5]: retented in a heparin HPLC affinity column | Relaxation of phenylephrine-induced aortic ring contraction [4]: relaxes phenylephrine-induced aortic ring contraction

CKSGGSWCGFD-PHGCCG--NCGCLV--GFCYGTGC- [Ginsentide TP9]
Retention in heparin HPLC affinity column [5]: retented in a heparin HPLC affinity column
